Results as given in patent publication EP4745134A1 (Jiangsu Yahong Meditech Co., Ltd., priority 2023, dated 2025).

Target: PRMT5-MTA (Homo sapiens, UniProt O14744)
Experiment: Enzymatic inhibitory activity against PRMT5-MTA (AlphaScreen)
Type: biochemical
Conditions: read-out: IC50
Method: The AlphaScreen method was used to detect the enzymatic inhibitory activity of the compounds against PRMT5-MTA. 1 x Methyltransferase assay buffer IV (signalchem) was prepared as a solution for diluting each component for the enzymatic reaction. PRMT5/[…] protein of a final concentration of 1 nM, […] (sigma) of a final concentration of 1 uM and S-(5'-adenosine)-L-methionine chloride dihydrochloride (sigma) of a final concentration of 2.5 uM were mixed, then incubated for 30 minutes at room temperature, and transferred to an OptiPlate-384 well plate (PerkinElmer) at a volume of 6 uL per well, for which no PRMT5/[…] protein was added to the control wells. The test compound was 3-fold serially diluted into 10 concentrations, starting from a concentration of 1000 nM, and the series of diluted compounds were added to all wells except the control wells in the well plate using Tecan D300e. The well plate was subjected to centrifugation for 1 minute at 1000 rpm in a centrifuge, and then incubated for 15 minutes at 23°C. Histone H4 substrate of a final concentration of 5 nM was added to the well plate at 4 uL per well, centrifuged for 1 minute at 1000 rpm in a centrifuge, then placed in an incubator at 23°C and reacted for 45 minutes. Anti-histone H4 (symmetrical dimethyl R3) antibody (Abcam) was incubated with 50 ug/mL of AlphaScreen Protein A Acceptor beads (PerkinElmer) for 10 minutes at room temperature beforehand, and then added to the well plate at a volume of 10 uL per well. The mixture was reacted for 1 hour at room temperature. 50 Ug/mL of AlphaScreen Streptavidin Donor beads (PerkinElmer) was added at 10 uL per well, and reacted for 1 hour at room temperature. The signal values were detected for the well plate through the Alpha method using an Envision multifunctional microplate-reader, and the IC50 values for inhibition of the compounds on PRMT5/MET50 enzyme activity were calculated in Xlfit 5.0 software. Table 1. IC50 values for inhibition of the compounds on PRMT5+MTA enzyme activity

PRMT5-MTA, sequence (O14744 whole entry): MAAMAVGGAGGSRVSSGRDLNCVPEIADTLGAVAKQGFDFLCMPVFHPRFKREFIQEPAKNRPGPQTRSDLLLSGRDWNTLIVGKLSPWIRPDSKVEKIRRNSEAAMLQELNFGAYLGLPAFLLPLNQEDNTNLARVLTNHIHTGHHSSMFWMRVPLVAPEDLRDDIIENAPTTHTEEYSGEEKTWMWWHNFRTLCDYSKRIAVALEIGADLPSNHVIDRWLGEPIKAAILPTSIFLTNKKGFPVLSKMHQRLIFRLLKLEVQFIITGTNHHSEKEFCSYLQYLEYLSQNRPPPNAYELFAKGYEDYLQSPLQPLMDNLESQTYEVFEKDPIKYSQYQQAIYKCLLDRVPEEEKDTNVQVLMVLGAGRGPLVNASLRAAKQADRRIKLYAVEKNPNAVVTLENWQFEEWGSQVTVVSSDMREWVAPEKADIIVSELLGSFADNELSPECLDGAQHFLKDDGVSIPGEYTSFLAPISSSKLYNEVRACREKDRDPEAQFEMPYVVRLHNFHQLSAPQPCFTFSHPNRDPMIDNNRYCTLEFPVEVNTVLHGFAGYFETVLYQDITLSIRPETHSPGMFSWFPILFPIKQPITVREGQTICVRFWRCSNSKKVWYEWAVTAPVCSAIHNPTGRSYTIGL
PRMT5-MTA, sequence (Q9BQA1 whole entry partner): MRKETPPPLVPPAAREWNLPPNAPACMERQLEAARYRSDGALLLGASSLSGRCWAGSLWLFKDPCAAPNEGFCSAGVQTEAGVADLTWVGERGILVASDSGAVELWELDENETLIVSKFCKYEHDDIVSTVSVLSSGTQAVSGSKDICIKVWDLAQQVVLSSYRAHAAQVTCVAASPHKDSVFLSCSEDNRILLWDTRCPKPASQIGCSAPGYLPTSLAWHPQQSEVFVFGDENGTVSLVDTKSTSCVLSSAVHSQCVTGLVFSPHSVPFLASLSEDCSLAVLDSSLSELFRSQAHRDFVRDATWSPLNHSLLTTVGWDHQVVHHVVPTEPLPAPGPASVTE

Row | Compound | IC50 [nM]
1 | COc1cc2cc(C(=O)N(Cc3ccc(C(F)(F)F)cn3)N(C)c3ncccn3)ccc2nc1N [Example 319, 2-amino-3-methoxy-N'-methyl-N'-(pyrimidin-2-yl)-N-((5-(trifluoromethyl)pyridin-2-yl)methyl)quinoline-6-carbohydrazide] | 4.7
2 | Nc1nc2ccc(C(=O)N(Cc3ccc(C(F)(F)F)cn3)N(c3ncccn3)C3CC3)cc2cc1CF [Example 323, 2-amino-N'-cyclopropyl-3-(fluoromethyl)-N'-(pyrimidin-2-yl)-N-((5-(trifluoromethyl)pyridin-2-yl)methyl)quinoline-6-carbohydrazide] | 7.1
3 | COCc1cc2cc(C(=O)N(Cc3ccc(C(F)(F)F)cn3)N(C)c3ncccn3)ccc2nc1N [Example 326, 2-amino-3-(methoxymethyl)-N'-methyl-N'-(pyrimidin-2-yl)-N-((5-(trifluoromethyl)pyridin-2-yl)methyl)quinoline-6-carbohydrazide] | 2
4 | CN(c1ncccn1)N(Cc1ccc(C(F)(F)F)cn1)C(=O)c1ccc2nc(N)c(C(F)(F)F)cc2c1 [Example 327, 2-amino-N'-methyl-N'-(pyrimidin-2-yl)-3-(trifluoromethyl)-N-((5-(trifluoromethyl)pyridin-2-yl)methyl)quinoline-6-carbohydrazide] | 8.4
5 | Cc1cc2nc(N)c3cnn(C)c3c2cc1C(=O)N1CCCN1c1nccc2nccnc12 [Example 331, (4-amino-1,7-dimethyl-1H-pyrazolo[4,3-c]quinolin-8-yl)(2-(pyrido[3,4-b]pyrazin-5-yl)pyrazolidin-1-yl)methanone] | 2.1
6 | Cc1cc2cc(C(=O)N3CC(C)CN3c3ncccc3F)c(F)cc2nc1N (centres unmarked) [Example 333, (2-amino-7-fluoro-3-methylquinolin-6-yl)(2-(3-fluoropyridin-2-yl)-4-methylpyrazolidin-1-yl)methanone] | 7.7
7 | Cc1cc2nc(N)c3cnn(C)c3c2cc1C(=O)N1CC(C)CN1c1ncccc1OC(F)(F)F (centres unmarked) [Example 334, (4-amino-1,7-dimethyl-1H-pyrazolo[4,3-c]quinolin-8-yl)(4-methyl-2-(3-(trifluoromethoxy)pyridin-2-yl)pyrazolidin-1-yl)m ethanone] | 9.2
8 | Cc1cc2nc(N)c3cnn(C)c3c2cc1C(=O)N1CCCN1c1ccncc1 [Example 336, (4-amino-1,7-dimethyl-1H-pyrazolo[4,3-c]quinolin-8-yl)(2-(pyridin-4-yl)pyrazolidin-1-yl)methanone] | 2.9
9 | Cc1cc2cc(C(=O)N3CCCN3c3ccc(C(F)(F)F)cn3)ccc2nc1N [Example 337, (2-amino-3-methylquinolin-6-yl)(2-(5-(trifluoromethyl)pyridin-2-yl)pyrazolidin-1-yl)methanone] | 59
10 | Cn1ncc2c(N)nc3ccc(C(=O)N4CCCN4c4ccc(C(F)(F)F)cn4)cc3c21 [Example 339, (4-amino-1-methyl-1H-pyrazolo[4,3-c]quinolin-8-yl)(2-(5-(trifluoromethyl)pyridin-2-yl)pyrazolidin-1-yl)methanone] | 4.6
11 | Cc1cc2nc(N)c3cnn(C)c3c2cc1C(=O)N1CC(O)CN1c1ncccc1F (centres unmarked) [Example 356, (4-amino-1,7-dimethyl-1H-pyrazolo[4,3-c]quinolin-8-yl)(2-(3-fluoropyridin-2-yl)-4-hydroxypyrazolidin-1-yl)methanone] | 3.7
12 | Cc1cc2nc(N)c3cnn(C)c3c2cc1C(=O)N1CC(C)CN1c1cccc(F)c1F (centres unmarked) [Example 363, (4-amino-1,7-dimethyl-1H-pyrazolo[4,3-c]quinolin-8-yl)(2-(2,3-difluorophenyl)-4-methylpyrazolidin-1-yl)methanone] | 3.1
13 | Cc1cc2nc(N)c3cnn(C)c3c2cc1C(=O)N1CC(C)CN1c1ncc(C#N)cc1F (centres unmarked) [Example 371, 6-(2-(4-amino-1,7-dimethyl-1H-pyrazolo [4,3-c]quinoline-8-formyl)-4-methylpyrazolidin-1-yl)-5-fluoronicotinonitrile] | 5.5
14 | Cc1cc2nc(N)c3cnn(C)c3c2cc1C(=O)N1C(C)CCN1c1ncccn1 (centres unmarked) [Example 373, (4-amino-1,7-dimethyl-1H-pyrazolo[4,3-c]quinolin-8-yl)(5-methyl-2-(pyrimidin-2-yl)pyrazolidin-1-yl)methanone] | 7.5
15 | Cc1cc2nc(N)c3cnn(C)c3c2cc1C(=O)N1CC(C)CN1c1ncccc1C (centres unmarked) [Example 380, (4-amino-1,7-dimethyl-1H-pyrazolo[4,3-c]quinolin-8-yl)(4-methyl-2-(3-methylpyridin-2-yl)pyrazolidin-1-yl)methanone] | 3.4
16 | Cc1cc2nc(N)c3cnn(C)c3c2cc1C(=O)N1CC(C)CN1c1ccc(C(F)(F)F)cn1 (centres unmarked) [Example 389, (4-amino-1,7-dimethyl-1H-pyrazolo[4,3-c]quinolin-8-yl)(4-methyl-2-(5-(trifluoromethyl)pyridin-2-yl)pyrazolidin-1-yl)met hanone] | 6.3
17 | Cc1cc2nc(N)c3cnn(C)c3c2cc1C(=O)N1CC(C)CN1c1ncccc1C(F)(F)F (centres unmarked) [Example 399, (4-amino-1,7-dimethyl-1H-pyrazolo[4,3-c]quinolin-8-yl)(4-methyl-2-(3-(trifluoromethyl)pyridin-2-yl)pyrazolidin-1-yl)met hanone] | 6.2
18 | Cc1cc2nc(N)c3cnn(C)c3c2cc1C(=O)N1CC(c2ccccc2)CN1c1ncccc1F (centres unmarked) [Example 409, (4-amino-1,7-dimethyl-1H-pyrazolo[4,3-c]quinolin-8-yl)(2-(3-fluoropyridin-2-yl)-4-phenylpyrazolidin-1-yl)methanone] | 3.1
19 | COC1CN(C(=O)c2cc3c(cc2Cl)nc(N)c2cnn(C)c23)N(c2cc(F)ccc2F)C1 (centres unmarked) [Example 440, (4-amino-7-chloro-1-methyl-1H-pyrazolo [4,3-c]quinolin-8-yl)(2-(2,5-difluorophenyl)-4-methoxypyrazolidin-1-yl)methanone] | 3.7
20 | Cc1cc2nc(N)c3cnn(C)c3c2cc1C(=O)N1CCC(=O)N1c1ccc(C(F)(F)F)cn1 [Example 463, 1-(4-amino-1,7-dimethyl-1H-pyrazolo[4,3-c]quinoline-8-carbonyl)-2-(5-(trifluoromethyl)pyridin-2-yl)pyrazolidin-3-one] | 1.3
21 | CCc1cc2nc(N)c3cnn(C)c3c2cc1C(=O)N1CCCN1c1ccc(C(F)(F)F)cn1 [Example 496, (4-amino-7-ethyl-1-methyl-1H-pyrazolo[4,3-c]quinolin-8-yl)(2-(5-(trifluoromethyl)pyridin-2-yl)pyrazolidin-1-yl)methanone] | 3.4
22 | Cn1ncc2c(N)nc3cc(C4CC4)c(C(=O)N4CCCN4c4ccc(C(F)(F)F)cn4)cc3c21 [Example 497, (4-amino-7-cyclopropyl-1-methyl-1H-pyr azolo[4,3-c]quinolin-8-yl)(2-(5-(trifluoromethyl)pyridin-2-yl)pyrazolidin-1-yl)met hanone] | 5.1
23 | COc1cc2nc(N)c3cnn(C)c3c2cc1C(=O)N1CCCN1c1ncccc1F [Example 498, (4-amino-7-methoxy-1-methyl-1H-pyraz olo[4,3-c]quinolin-8-yl)(2-(3-fluoropyridin-2-yl)pyrazolidin-1-yl)methanone] | 5
24 | CC(C)c1cc2nc(N)c3cnn(C)c3c2cc1C(=O)N1CCCN1c1ccc(C(F)(F)F)cn1 [Example 500, (4-amino-7-isopropyl-1-methyl-1H-pyraz olo[4,3-c]quinolin-8-yl)(2-(5-(trifluoromethyl)pyridin-2-yl)pyrazolidin-1-yl)metha none] | 41
25 | Cc1cc2nc(N)c3c(cnn3C)c2cc1C(=O)N1CCCN1c1ncccc1F [Example 501, (4-amino-3,7-dimethyl-3H-pyrazolo[3,4-c]quinolin-8-yl)(2-(3-fluoropyridin-2-yl)pyrazolidin-1-yl)methanone] | 4.4
26 | CCn1ncc2c(N)nc3cc(C)c(C(=O)N4CC(C)CN4c4ncccc4F)cc3c21 (centres unmarked) [Example 503, (4-amino-1-ethyl-7-methyl-1H-pyrazolo[4,3-c]quinolin-8-yl)(2-(3-fluoropyridin-2-yl)-4-methylpyrazolidin-1-yl)methanone] | 5.2
27 | Cc1cc2nc(N)c3c(cnn3C)c2cc1C(=O)N1CC(C)CN1c1ncccc1F (centres unmarked) [Example 504, (4-amino-3,7-dimethyl-3H-pyrazolo[3,4-c]quinolin-8-yl)(2-(3-fluoropyridin-2-yl)-4-methylpyrazolidin-1-yl)methanone] | 8.6
28 | Cn1ncc2c(N)nc3cc(C(F)(F)F)c(C(=O)N4CCCN4c4ccc(C(F)(F)F)cn4)cc3c21 [Example 505, (4-amino-1-methyl-7-trifluoromethyl-1H-pyrazolo[4,3-c]quinolin-8-yl)(2-(5-(trifluoromethyl)pyridin-2-yl)pyrazolidin-1-yl) methanone] | 3
29 | Cc1cc2nc(N)c3cnccc3c2cc1C(=O)N1CC(C)CN1c1ncccc1F (centres unmarked) [Example 506, (5-amino-8-methylbenzo[C] [2,7]naphthyridin-9-yl)(2-(3-fluoropyridin-2-yl)-4-methylpyrazolidin-1-yl)methanone] | 5.8
